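All cell lines were grown in 96-well plates and treated with compound for 48 hours. GI50 marks 50% less growth.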 Calls of active or inactive are those of the source. Cut-off read from the data, not from the text of the source: active = GI50 up to about 1.1 µM and inactive = higher.
Experiments:
Assay in all cases: growth of human tumour cells (NCI), 48 h
CCRF-CEM = tested on: CCRF-CEM
MCF7 = tested on: MCF7
NCI/ADR-RES = tested on: NCI/ADR-RES
U-251 = tested on: U-251
T47D = tested on: T47D
MDA-N = tested on: MDA-N
SF-539 = tested on: SF-539
SW-620 = tested on: SW-620
RPMI-8226 = tested on: RPMI-8226
Malme-3M = tested on: Malme-3M
TK-10 = tested on: TK-10
MOLT-4 = tested on: MOLT-4
SF-295 = tested on: SF-295
MDA-MB-231 = tested on: MDA-MB-231
HCT-15 = tested on: HCT-15
M14 = tested on: M14
A549 = tested on: A549
SK-MEL-28 = tested on: SK-MEL-28
ACHN = tested on: ACHN
RXF 393 = tested on: RXF 393

SMILES	GI50 (CCRF-CEM)	GI50 (MCF7)	GI50 (NCI/ADR-RES)	GI50 (U-251)	GI50 (T47D)	GI50 (MDA-N)	GI50 (SF-539)	GI50 (SW-620)	GI50 (RPMI-8226)	GI50 (Malme-3M)	GI50 (TK-10)	GI50 (MOLT-4)	GI50 (SF-295)	GI50 (MDA-MB-231)	GI50 (HCT-15) [µM]	GI50 (M14)	GI50 (A549)	GI50 (SK-MEL-28)	GI50 (ACHN)	GI50 (RXF 393)
COc1cc(OC)c2c(=O)c(O)c(-c3ccc(OC)c(OC)c3)oc2c1	3.1 µM (inactive)	4.02 µM (inactive)	2.86 µM (inactive)	4.94 µM (inactive)	4.97 µM (inactive)	47.8 µM (inactive)	16.1 µM (inactive)	7.8 µM (inactive)	4.72 µM (inactive)	> 28.1 µM (inactive)	11.2 µM (inactive)	2.89 µM (inactive)	5.37 µM (inactive)	5.28 µM (inactive)	3.08	9.4 µM (inactive)	5.85 µM (inactive)	> 25.2 µM (inactive)	4.36 µM (inactive)	8.99 µM (inactive)
Nc1ncnn2c(C3OC(CO)C(O)C3O)ccc12 (stereo not given)	0.144 µM (active)	0.164 µM (active)	0.237 µM (active)	0.125 µM (active)	0.291 µM (active)	0.163 µM (active)	0.106 µM (active)	0.123 µM (active)	0.147 µM (active)	0.0698 µM (active)	0.214 µM (active)	0.153 µM (active)	0.323 µM (active)	0.153 µM (active)	0.138	0.0832 µM (active)	0.155 µM (active)	0.164 µM (active)	0.17 µM (active)	0.226 µM (active)
CC(=O)Nc1ccc2c3c(cc(O)c2c1)N(C(=O)CCCCCC(=O)Nc1ccc2c4c(cc(O)c2c1)N(C(=O)OC(C)(C)C)CC4CCl)CC3CCl (stereo not given)	0.0995 µM (active)	0.233 µM (active)	> 100 µM (inactive)	0.74 µM (active)	0.541 µM (active)	1.53 µM (inactive)	2.37 µM (inactive)	2.17 µM (inactive)	3.37 µM (inactive)	2.17 µM (inactive)	18 µM (inactive)	0.0585 µM (active)	5.73 µM (inactive)	4.33 µM (inactive)	> 100	4.09 µM (inactive)	12.3 µM (inactive)	6.28 µM (inactive)	3.54 µM (inactive)	1.24 µM (inactive)
COc1ccc(N2C(=O)C3c4[nH]c5c(C)cccc5c4C4CCC(C(C)(C)C)CC4C3C2=O)cc1 (stereo not given)	> 10 µM (inactive)	3.56 µM (inactive)	> 10 µM (inactive)	> 10 µM (inactive)	> 10 µM (inactive)	> 10 µM (inactive)	9.42 µM (inactive)	6.62 µM (inactive)	6 µM (inactive)	> 10 µM (inactive)	9.14 µM (inactive)	3.47 µM (inactive)	> 10 µM (inactive)	> 10 µM (inactive)	> 10	> 10 µM (inactive)	7 µM (inactive)	> 10 µM (inactive)	5.12 µM (inactive)	3.36 µM (inactive)
COC(=O)[C@]12CC=C3O[C@@H]4OC5(CCCCC5)O[C@@H]4[C@H]3C1C(=O)C=CC2=O (stereo not given in full)	4.13 µM (inactive)	16 µM (inactive)	18.1 µM (inactive)	18.7 µM (inactive)	17.1 µM (inactive)	19.1 µM (inactive)	19.6 µM (inactive)	15.9 µM (inactive)	7.64 µM (inactive)	17.9 µM (inactive)	17.1 µM (inactive)	7.03 µM (inactive)	24.6 µM (inactive)	16.8 µM (inactive)	15.6	17.4 µM (inactive)	32.1 µM (inactive)	18.9 µM (inactive)	18.5 µM (inactive)	8.73 µM (inactive)
Cc1cccc2c1NC(=S)[C@@H]1CCCN1C2=O	> 100 µM (inactive)	> 100 µM (inactive)	> 100 µM (inactive)	> 100 µM (inactive)	> 100 µM (inactive)	> 100 µM (inactive)	> 100 µM (inactive)	> 100 µM (inactive)	> 100 µM (inactive)	> 100 µM (inactive)	> 100 µM (inactive)	> 100 µM (inactive)	> 100 µM (inactive)	> 100 µM (inactive)	> 100	> 100 µM (inactive)	> 100 µM (inactive)	> 100 µM (inactive)	> 100 µM (inactive)	> 100 µM (inactive)
